Reference: ChEMBL document CHEMBL2424584, “Novel cross-link breaker based on zwitterion structure: synthesis, structure and druggability studies” (Eur J Med Chem, 2013)
Activity calls are given as the source filed them. No cut-off for these calls is given here.

Species on record: Rattus norvegicus
Experiment: Reversible of increased arterial stiffness associated with diabetes in rat
Format: functional, organism-based

Structure (SMILES): Cc1csc[n+]1CC(=O)[O-]
- Activity: Active
